Assay results reported in publication PMC3697074 (Journal of medicinal chemistry, 2011).

System: P. falciparum K1 (CQ-resistant strain)
Test: Antimalarial activity, chloroquine-resistant strain K1
Assay type: cell-based, Plasmodium falciparum

Row | Structure (SMILES) | antimalarial activity against strain K1 (in words)
1 | COc1ccc(F)cc1CNCCCNc1ccnc2cc(Oc3ccc(F)cc3)ccc12 [3{1,5,4}] | enhanced potency in strain K1
2 | COc1cccc(Oc2ccc3c(NCCCNCc4cc(F)ccc4OC)ccnc3c2)c1 [3{1,3,4}] | enhanced potency in strain K1
3 | COc1ccc(F)cc1CNCCCNc1ccnc2cc(Oc3ccccc3)ccc12 [3{1,1,4}] | enhanced potency in strain K1
